According to patent US20220211710A1, “COMPOSITIONS AND METHODS FOR TREATING CANCER WITH NUCLEOSIDE-METABOLISM MODULATORS” (The Regents of the University of California, priority 2019, published 2022):

How the values were obtained:
Type in all cases: cell-based, human
SUIT2 SAMHD1 KO cells [1] = assay: Cell Titer Glo proliferation, SUIT2 SAMHD1 knockout; conditions: 72 h
Description: (§1) For CellTiter-Glo analysis cells were plated at 1×10^3 cells/well in 50 μl/well in white opaque 384-well plates and treated as described. Following incubation 50 μl of CellTiter-Glo reagent (Diluted 1:5 in dH2O) was added to each well, plates incubated at room temperature for 5 m and luminescence was measured using a BioTek microplate luminescence reader. Proliferation rate normalized growth inhibition was calculated using the previously described GR metric (Hafner et al., 2016).

MOLT-4 cells = assay: Cell Titer Glo proliferation, MOLT-4; conditions: MOLT-4, 5 μM dG + 1 μM BCX-1777, 72 h
Description: as §1

NALM6 cells [2] = assay: Immunoblot analysis, NALM6; conditions: NALM6, 5 μM dG + 1 μM BCX-1777, 24 h
Description: (§2) PBS-washed cell pellets were re-suspended in cold RIPA buffer supplemented with protease and phosphatase inhibitors. Protein lysates were normalized using BCA assay, diluted using RIPA and 4× laemmli loading dye, resolved on 4-12% Bis-Tris gels and electro-transferred to nitrocellulose membranes. After blocking with 5% nonfat milk in TBS+0.1% Tween-20 (TBS-T), membranes were incubated overnight in primary antibodies diluted (per manufacturers instructions) in 5% BSA in TBS-T. Membranes were washed with TBST-T and incubated with HRP-linked secondary antibodies prepared at a 1:2500 dilution in 5% nonfat dry milk in TBS-T. HRP was activated by incubating membranes with a mixture of SuperSignal Pico and SuperSignal Femto ECL reagents (100:1 ratio). Exposure of autoradiography film was used for detection.

B-ALL cell lines = assay: Cell Titer Glo proliferation, B-ALL models; conditions: 5 μM dG + 1 μM BCX-1777, 72 h
Description: as §1

JURKAT cells = assay: Cell Titer Glo proliferation, JURKAT
Description: as §1

SUIT2 cells [3] = assay: Immunoblot analysis, SUIT2 wild-type; conditions: SUIT2 parental, 5 μM dG + 1 μM forodesine, 24 h
Description: as §2

HCC827 cells [4] = assay: Crystal violet proliferation analysis, HCC827; conditions: HCC827, 5 μM dG + 1 μM PNPi, 7 d
Description: (§3) For crystal violet staining, cells were plated in 6-well cell culture plates at 1×10^4 cells/well and treated as described. Following treatment cells were fixed by incubating in 4% PFA in PBS for 15 m at room temperature. Plates were subsequently washed with PBS and stained with 0.1% crystal violet in H2O for 15 m at room temperature.

T-ALL cell lines = assay: Propidium iodide cell cycle analysis, T-ALL models; conditions: T-ALL models only, 5 μM dG + 1 μM BCX-1777, 24 h
Description: (§4) Treated cells were washed with PBS and suspended in propidium iodide cell cycle staining solution (100 μg/ml propidium iodide; 20 μg/ml Ribonuclease A). 10,000 events were collected per sample. All flow cytometry data were acquired on five-laser BD LSRII, and analyzed using FlowJo software (Tree Star).

[5] = system: CCRF-CEM SAMHD1 over-expressing cells; assay: Cell Titer Glo proliferation, CCRF-CEM SAMHD1 over-expressing
Description: as §1

CCRF-CEM cells [6] = assay: Immunoblot analysis, CCRF-CEM; conditions: 5 μM dG + 1 μM BCX-1777, 24 h
Description: as §2

HCC827 cells [7] = assay: Cell Titer Glo proliferation, HCC827; conditions: for IC50: Homo sapiens, HCC827, 72 h, +10 μM dG
Description: as §1

HCC827 cells [8] = assay: Propidium iodide cell cycle analysis, HCC827; conditions: HCC827, 5 μM dG + 1 μM BCX-1777, 24 h
Description: as §4

[9] = system: CCRF-CEM SAMHD1 over-expressing cells; assay: Propidium iodide cell cycle analysis, CCRF-CEM SAMHD1 over-expressing; conditions: CCRF-CEM expressing SAMHD1, 5 μM dG + 1 μM BCX-1777, 24 h
Description: as §4

SUIT2 SAMHD1 KO cells [10] = assay: Crystal violet proliferation analysis, SUIT2 SAMHD1 knockout; conditions: 7 d
Description: as §3

[11] = system: SAMHD1-deficient primary melanoma cell lines; assay: Propidium iodide cell cycle analysis, SAMHD1-deficient primary melanoma models; conditions: only SAMHD1-deficient melanoma models, 1 μM PNPi + 10 μM dG, 24 h
Description: as §4

[12] = system: SAMHD1-deficient primary melanoma cell lines; assay: Crystal violet proliferation analysis, SAMHD1-deficient primary melanoma models; conditions: 1 μM PNPi + 10 μM dG, 7 d
Description: as §3

CCRF-CEM cells [13] = assay: Cell Titer Glo proliferation, CCRF-CEM (YFP control)
Description: as §1

SUIT2 SAMHD1 KO cells [14] = assay: Immunoblot analysis, SUIT2 SAMHD1 knockout
Description: as §2

[15] = system: CCRF-CEM CDA over expressing cells; assay: Cell Titer Glo proliferation, CCRF-CEM CDA over-expressing; conditions: CCRF-CEM overexpressing CDA, 10 μM dG + 1 μM BCX-1777 + dC, 72 h
Description: as §1

SUIT2 cells [16] = assay: Cell Titer Glo proliferation, SUIT2 wild-type; conditions: SUIT2 (SAMHD1-proficient), 72 h, +5 μM dG
Description: as §1

NALM6 cells [17] = assay: Cell Titer Glo proliferation, NALM6; conditions: NALM6 (SAMHD1-proficient), 72 h, +1 μM dG
Description: as §1

NC(=S)N/N=C/c1ncccc1N [3-AP]
selectivity for SAMHD1 KO over WT cells (SUIT2 SAMHD1 KO cells [1]; SUIT2 SAMHD1 KO vs WT): did not extend

O=c1[nH]cnc2c([C@@H]3N[C@H](CO)[C@@H](O)[C@H]3O)c[nH]c12 [Forodesine]
anti-proliferative effect of the combination with dG (MOLT-4 cells): eradicated
DNA damage and apoptosis (NALM6 cells [2]): not in NALM6 cells
anti-proliferative effect of the combination with dG (B-ALL cell lines): unaffected
anti-proliferative effect of the combination with dG (JURKAT cells; JURKAT, 5 μM dG + 1 μM BCX-1777, 72 h): eradicated
response to PNPi (DNA damage) (SUIT2 cells [3]): completely resistant
proliferation, crystal violet (HCC827 cells [4]): proliferation inhibition
percentage of sub-G1 cells (marker for cell death) (T-ALL cell lines): increase in the percentage of sub-G1 cells
anti-proliferative effect of PNPi ([5]; CCRF-CEM expressing SAMHD1, 5 μM dG + 1 μM BCX-1777, 72 h): completely resistant
DNA damage (H2AXS139 phosphorylation) (CCRF-CEM cells [6]): induced DNA damage
apoptosis (cleaved caspase 3 accumulation) (CCRF-CEM cells [6]): apoptosis
IC50 (HCC827 cells [7]): 71 nM
cell cycle (HCC827 cells [8]): induced cell cycle arrest
cytotoxic effect of PNPi [9]: completely resistant
proliferation, crystal violet (SUIT2 SAMHD1 KO cells [10]; only SUIT2 SAMHD1 knockout cells, 5 μM dG + 1 μM PNPi): could be prevented
cell cycle [11]: induced cell cycle arrest
proliferation, crystal violet [12]: selectively inhibited proliferation
proliferation with dC supplementation (CCRF-CEM cells [13]; CCRF-CEM YFP, 10 μM dG + 1 μM BCX-1777 + 1 μM dC, 72 h): 60 % of control
proliferation (CCRF-CEM cells [13]; CCRF-CEM YFP, 10 μM dG + 1 μM BCX-1777, 72 h): 1 % of control
anti-proliferative effect of the combination with dG (CCRF-CEM cells [13]; CCRF-CEM, 5 μM dG + 1 μM BCX-1777, 72 h): eradicated
DNA damage in response to PNPi (SUIT2 SAMHD1 KO cells [14]; SUIT2 SAMHD1 knockout, 5 μM dG + 1 μM forodesine, 24 h): exhibited DNA damage
dC rescue of the anti-proliferative effect of PNPi [15]: prevented this rescue

Cc1cn([C@H]2C[C@H](O)[C@@H](CO)O2)c(=O)[nH]c1=O [thymidine]
induction of pCHEK1S345 and pH2A.XS139 (SUIT2 SAMHD1 KO cells [14]; SUIT2 SAMHD1 KO vs WT, 100 μM dT, 24 h): enhanced

O=c1[nH]cnc2c(CN3C[C@H](CO)[C@@H](O)C3)c[nH]c12 [ulodesine]
proliferation (ulodesine) (SUIT2 cells [16]): not exhibiting any activity
proliferation (ulodesine) (SUIT2 SAMHD1 KO cells [1]; SUIT2 CRISPR/Cas9 SAMHD1 knockout, +5 μM dG): sensitive
proliferation (ulodesine) (JURKAT cells; JURKAT (SAMHD1 deficient), 72 h, +1 μM dG): selectively impaired the proliferation
proliferation (ulodesine) ([5]; CCRF-CEM overexpressing SAMHD1, 72 h, +1 μM dG): resistance
proliferation (ulodesine) (HCC827 cells [7]; HCC827 (SAMHD1 deficient), 72 h, +5 μM dG): selectively impaired the proliferation
IC50 (HCC827 cells [7]): 21 nM
proliferation (ulodesine) (NALM6 cells [17]): not exhibiting any activity
proliferation (ulodesine) (CCRF-CEM cells [13]; CCRF-CEM (SAMHD1 deficient), 72 h, +1 μM dG): selectively impaired the proliferation

(R)-DI-82 [dCK inhibitor]
effect of dCK inhibitor on PNPi anti-proliferative effect (SUIT2 SAMHD1 KO cells [10]; SUIT2 SAMHD1 knockout, 5 μM dG + 1 μM PNPi + 1 μM dCKi): completely blocked
effect of dCK inhibitor on PNPi-induced DNA damage (SUIT2 SAMHD1 KO cells [14]; SUIT2 SAMHD1 knockout, 5 μM dG + 1 μM forodesine + 1 μM (R)-DI-82, 24 h): completely prevented
